The values below come from patent US20160051665A1, “INDUCTION OF IMMUNE RESPONSE” (priority 2010, published 2016).

Series [1] has as its system WHV surface antigen (WHsAg). The series is described as follows: serum WHsAg enzyme immunoassay in chronic WHV carrier woodchucks. Conditions: for WHsAg, Av(range): serum. Format: in vivo, woodchuck. The procedure:
(§1) All experimental procedures involving woodchucks were performed under protocols approved by the Cornell University Institutional Animal Care and Use Committee. Woodchucks were born to WHV-negative females in environmentally controlled laboratory animal facilities and inoculated at 3 days of age with 5 million infectious doses of a standardized WHV inoculum (23). Woodchucks were selected as chronic WHV carriers based on persistent detection of WHV surface antigen (WHsAg) and WHV DNA in serum prior to treatments. All animals were free of HCC at the beginning of the study as determined by hepatic ultrasound examination and normal serum activity of γ-glutamyl-transferase (GGT).
Twenty adult chronically infected woodchucks were stratified by age, sex, body weight, serum viral load, and serum GGT activity into four treatment groups of five animals each. Drug was administered orally at 100 mg/kg (in sterile water), chosen after an initial dose finding trial. […] The subunit vaccine consisted of 22-nm WHsAg particles, purified by zonal ultracentrifugation from serum of WHV7P1-infected WHV carriers (24), inactivated with formalin, and adsorbed onto alum. Prior to alum adsorption, vaccine was tested in naïve, WHV-susceptible animals and no residual virus was detected. Purified WHsAg was not pretreated with enzymes that remove preS sequences. […]
(§2) Serum WHV DNA was measured quantitatively by dot blot hybridization (assay sensitivity, ≧1.0×10^7 WHV genome equivalents per ml [WHVge/ml]) (25). Serum WHsAg, antibodies to WHV core antigen (anti-WHc), and WHV surface antigen (anti-WHs) were determined with WHV-specific enzyme immunoassays (26). […]
Woodchucks chronically infected with WHV experienced significant immunological responses to envelope proteins following immunization with WHsAg-containing vaccines, especially in the context of low viral and antigen loads following treatment with an effective antiviral agent, 1-(2-fluoro-5-methyl-beta-L-arabinofuranosyl)-uracil (L-FMAU) (29, 35). […] Animals were scored as positive if cells proliferated above the cut-off value of 2: 3.1. […]

A further series relates to glucosidases. The experiment in a line: glycan analysis of serum: tri-glucosylated glycans (Glu3). The class given is in vivo, woodchuck. The procedure:
Sample preparation for glycan analysis was performed essentially as described (27). HPLC separation was performed using the Waters Alliance HPLC system with a Waters fluorescence detector, and quantified using the Millenium Chromatography Manager (Waters Corporation, Milford, Mass.). Tri-glucosylated structures were identified by comparison to known standards (27, 28).
In vivo, levels of circulating glycoproteins with N-glycans bearing three terminal glucose residues reflect the extent of glucosidase inhibition (11). […] Note that BuCas-treated animals that were negative for tri-glucosylated glycans at the 10-week time point were positive at one or more other time points (data not shown). No tri-glucosylated glycans were detected in any drug-naïve animals (Table 2).

Series [2] can be described thus: serum drug level after single oral dose in woodchucks. Format: in vivo. The following applies: woodchuck, single oral dose of 100 mg/kg. The protocol:
Twenty adult chronically infected woodchucks were stratified by age, sex, body weight, serum viral load, and serum GGT activity into four treatment groups of five animals each. Drug was administered orally at 100 mg/kg (in sterile water), chosen after an initial dose finding trial. […] The subunit vaccine consisted of 22-nm WHsAg particles, purified by zonal ultracentrifugation from serum of WHV7P1-infected WHV carriers (24), inactivated with formalin, and adsorbed onto alum. Prior to alum adsorption, vaccine was tested in naïve, WHV-susceptible animals and no residual virus was detected. Purified WHsAg was not pretreated with enzymes that remove preS sequences.

The nature of series [3]: serum ALT, marker of hepatocellular injury, in woodchucks. Format: in vivo, woodchuck. The protocol:
as §1
Twenty adult chronically infected woodchucks were stratified by age, sex, body weight, serum viral load, and serum GGT activity into four treatment groups of five animals each. Drug was administered orally at 100 mg/kg (in sterile water), chosen after an initial dose finding trial. […] Prior to alum adsorption, vaccine was tested in naïve, WHV-susceptible animals and no residual virus was detected. […]
as §2

With `CCCC(=O)O[C@H]1CN2CC[C@H](O)[C@@H]2[C@@H](O)[C@H]1O` [BuCas, 6-O-butanoyl castanospermine], the “antigenemia, in words” value in series [1] (chronic WHV carrier woodchucks, all times tested) is given as “not altered significantly”. For the same compound, the entries for the “WHsAg, Av(range)” value in series [1] (week 0 (baseline)) and in series [1] (week 10) were “.38(.28-.43) optical density units” and “.42(33-.52) optical density units”, respectively. Moreover, the “glycan processing (tri-glucosylated glycans in sera), in words” value in the series on glucosidases (sera of treated woodchucks) is “impaired glycan processing”. Moreover, the “Glu3, % (tri-glucosylated glycans in serum)” value in the series with glucosidases (week 10) was “.49 (0-.90) %”. Further, the “Cmax, range” value in series [2] lay in the range of 5.0 to 12.1 µg/mL. Further, in series [2], the “average observed Cmax” value was 7.7 µg/mL. The “ALT, Av(range)” value is 7.4 (4-9) Units/L in series [3] (week 0 (baseline)) and 15.6 (10-22) Units/L in series [3] (week 10).
